Key:
[1] = target: T1, human PPARγ LBD bound to Gal4 DBD (Homo sapiens, UniProt P37231); assay: PPARγ transfection luciferase reporter assay in HepG2 cells; assay type: cell-based; conditions: for Emax: HepG2, 24 h, compared to full agonist response (standard TZD full agonist), read-out: PPARγ % activation; for EC50: HepG2, 24 hours exposure
T1 construct: expressed in transfected cells; host or cells: HepG2
T1 sequence (P37231 238-503 limits assumed): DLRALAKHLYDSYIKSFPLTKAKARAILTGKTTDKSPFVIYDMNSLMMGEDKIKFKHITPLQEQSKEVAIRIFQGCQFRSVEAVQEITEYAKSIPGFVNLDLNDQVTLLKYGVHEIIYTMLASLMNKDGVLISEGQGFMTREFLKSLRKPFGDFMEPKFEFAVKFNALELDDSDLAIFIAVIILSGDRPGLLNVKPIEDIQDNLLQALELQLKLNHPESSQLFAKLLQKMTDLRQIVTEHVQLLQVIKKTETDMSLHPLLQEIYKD
Method: PPARγ agonist activity may be determined by a cell line transiently transfected with PPARγ bound to a DNA binding domain that controls luciferase expression. The degree of receptor agonism is measured by the amount of luciferase activity after compound treatment. The ratio of treated cells over vehicle control cells provides a measure of fold activation and allows an EC50 (shown in tables I and II as […] EC50) and % activation to be calculated
A human hepatocellular carcinoma cell line (HepG2) was subcultured into dishes and transiently transfected with DNA to allow expression of human PPARγ LBD bound to Gal4 DBD. Luciferase reporter gene and β-galactosidase control genes were co-transfected to enable activity to be measured. After 24 hours, cells were exposed to compounds in the concentration range of 0.1 nM-100 μM and left for a further 24 hours. Luciferase activity is determined by luminometry and PPARγ activation is expressed as a ratio of luciferase activity to β-galactosidase activity to account for transfection efficiency. Potency is described by an EC50 defined as the concentration of compound producing receptor activation equivalent to 50% of the maximum for that compound (shown in Table I as transfection EC50). The maximum fold activation is a measure of efficacy and is expressed as a percentage of a reference full agonist run in the same assay. Efficacy is described by % activation of receptor relative to a standard thiazolidinedione (TZD) full agonist.

[2] = target: T2, Human recombinant AT1 receptor (Homo sapiens, UniProt P30556); assay: AT1 receptor radioligand binding (flashplate); conditions: 125I Sar1,Ile8-Angiotensin II radioligand
T2 construct: purchased
T2 sequence (P30556 1-359): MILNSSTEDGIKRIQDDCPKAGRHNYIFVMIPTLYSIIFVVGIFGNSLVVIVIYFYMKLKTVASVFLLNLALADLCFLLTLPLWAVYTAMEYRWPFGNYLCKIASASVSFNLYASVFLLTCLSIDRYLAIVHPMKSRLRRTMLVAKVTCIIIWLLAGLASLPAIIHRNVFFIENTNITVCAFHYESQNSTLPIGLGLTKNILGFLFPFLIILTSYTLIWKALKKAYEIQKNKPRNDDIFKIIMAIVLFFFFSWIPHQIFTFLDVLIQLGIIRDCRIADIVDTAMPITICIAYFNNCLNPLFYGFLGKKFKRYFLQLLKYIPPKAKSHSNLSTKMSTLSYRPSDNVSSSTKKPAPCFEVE
Method: Angiotensin II receptor antagonist activity may be determined using commercially available flashplates coated with the AT1 or AT2 receptor which provide a rapid and high throughput means to evaluate compounds compared to traditional filtration based assays (Regina M. Van Der Hee et al., Journal of Biomolecular Screening 10(2); 2005; 118-126).
AT1 receptor affinity was determined in a radioligand binding format using commercially available flashplate technology. Human recombinant AT1 receptor were coated on the wells of a 96 well flashplate and test compounds were diluted and added to wells at a final concentration range of 50 μM to 1 μM. Total binding was determined in the absence of compound and non-specific binding in the presence of 10 μM cold Angiotensin II. ^125I labeled Sar^1, Ile^8-Angiotensin II was added to all wells at Kd concentration and left for 2 hours at room temperature to equilibrate. Plates were read on a TopCount (Perkin Elmer) and concentration-response curves constructed using commercial curve fitting software. The Ki was determined via interpolation and the use of the Cheng-Prussof equation.

SMILES	Emax [1]	EC50 [1]	IC50 [2]
CCc1nc2c(C)cc(COC(C)C)nc2n1[C@H]1CCc2cc(-c3ccccc3-c3nnn[nH]3)ccc21 [Example 4, 3-((1S)-5-(2-(1H-tetrazol-5-yl)phenyl)-2,3-dihydro-1H-inden-1-yl)-2-ethyl-5-(isopropoxymethyl)-7-methyl-3H-imidazo[4,5-b]pyridine]	32%	295 nM	2.2 nM
CCc1nc2c(C)cc(CCC3(O)CCCC3)nc2n1[C@H]1CCc2cc(-c3ccccc3-c3nnn[nH]3)ccc21 [Example 42, 1-(2-(3-((1S)-5-(2-(1H-tetrazol-5-yl)phenyl)-2,3-dihydro-1H-inden-1-yl)-2-ethyl-7-methyl-3H-imidazo[4,5-b]pyridin-5-yl)ethyl)cyclopentanol]	29%	155 nM	1.1 nM
CCc1nc2c(C)cc(CCc3cc(C)ccc3C)nc2n1[C@H]1CCc2cc(-c3ccccc3-c3nnn[nH]3)ccc21 [Example 31, 3-((1S)-5-(2-(1H-tetrazol-5-yl)phenyl)-2,3-dihydro-1H-inden-1-yl)-5-(2,5-dimethylphenethyl)-2-ethyl-7-methyl-3H-imidazo[4,5-b]pyridine]	63%	45 nM	6.9 nM
CCc1nc2c(C)cc([C@H](O)c3ccccc3)nc2n1[C@H]1CCc2cc(-c3ccccc3-c3nnn[nH]3)ccc21 [Example 8b, (R)-(3-((1S)-5-(2-(1H-tetrazol-5-yl)phenyl)-2,3-dihydro-1H-inden-1-yl)-2-ethyl-7-methyl-3H-imidazo[4,5-b]pyridin-5-yl)(phenyl)methanol]	25%	100 nM	1.5 nM
CCc1nc2c(C)cc(CCc3ccccc3)nc2n1[C@H]1CCc2cc(-c3ccccc3-c3nnn[nH]3)ccc21 [Example 30, 3-((1S)-5-(2-(1H-tetrazol-5-yl)phenyl)-2,3-dihydro-1H-inden-1-yl)-2-ethyl-7-methyl-5-phenethyl-3H-imidazo[4,5-b]pyridine]	28%	160 nM	6 nM
CCc1nc2c(C)cc(CCc3ccccc3F)nc2n1[C@H]1CCc2cc(-c3ccccc3-c3nnn[nH]3)ccc21 [Example 26, 3-((1S)-5-(2-(1H-tetrazol-5-yl)phenyl)-2,3-dihydro-1H-inden-1-yl)-5-(2-fluorophenethyl)-2-ethyl-7-methyl-3H-imidazo[4,5-b]pyridine]	26%	380 nM	10 nM
C=CCc1cc(C)c2nc(CC)n([C@H]3CCc4cc(-c5ccccc5-c5nnn[nH]5)ccc43)c2n1 [Example 9, 3-((1S)-5-(2-(1H-tetrazol-5-yl)phenyl)-2,3-dihydro-1H-inden-1-yl)-5-allyl-2-ethyl-7-methyl-3H-imidazo[4,5-b]pyridine]	27%	60 nM	2.7 nM
CCc1nc2c(C)cc(CCc3ccccn3)nc2n1[C@H]1CCc2cc(-c3ccccc3-c3nnn[nH]3)ccc21 [Example 25, 3-((1S)-5-(2-(1H-tetrazol-5-yl)phenyl)-2,3-dihydro-1H-inden-1-yl)-2-ethyl-7-methyl-5-(2-(pyridin-2-yl)ethyl)-3H-imidazo[4,5-b]pyridine]	26%	180 nM	2.4 nM
CCc1nc2c(C)cc(COC)nc2n1[C@H]1CCc2cc(-c3ccccc3-c3nnn[nH]3)ccc21 [Example 3, 3-((1S)-5-(2-(1H-tetrazol-5-yl)phenyl)-2,3-dihydro-1H-inden-1-yl)-2-ethyl-5-(methoxymethyl)-7-methyl-3H-imidazo[4,5-b]pyridine]	32%	665 nM	1.6 nM
CCc1nc2c(C)cc(C(C)(C)OC)nc2n1[C@H]1CCc2cc(-c3ccccc3-c3nnn[nH]3)ccc21 [Example 17, 3-((1S)-5-(2-(1H-tetrazol-5-yl)phenyl)-2,3-dihydro-1H-inden-1-yl)-2-ethyl-5-(2-methoxypropan-2-yl)-7-methyl-3H-imidazo[4,5-b]pyridine]	24%	65 nM	8.8 nM

Next, values leading:

Emax [1]	EC50 [1]	IC50 [2]	SMILES
23%	110 nM	5.1 nM	CCc1nc2c(C)cc(Cn3nc(C)cc3C)nc2n1[C@H]1CCc2cc(-c3ccccc3-c3nnn[nH]3)ccc21 [Example 67, 3-((1S)-5-(2-(1H-tetrazol-5-yl)phenyl)-2,3-dihydro-1H-inden-1-yl)-5-((3,5-dimethyl-1H-pyrazol-1-yl)methyl)-2-ethyl-7-methyl-3H-imidazo[4,5-b]pyridine]
21%	95 nM	1.9 nM	CCc1nc2c(C)cc(CC3CCCCC3O)nc2n1[C@H]1CCc2cc(-c3ccccc3-c3nnn[nH]3)ccc21 (single isomer, unassigned) [Example 64]
31%	200 nM	3.8 nM	CCc1nc2c(C)cc(CCC3CCCCC3)nc2n1[C@H]1CCc2cc(-c3ccccc3-c3nnn[nH]3)ccc21 [Example 58, 3-((1S)-5-(2-(1H-tetrazol-5-yl)phenyl)-2,3-dihydro-1H-inden-1-yl)-5-(2-cyclohexylethyl)-2-ethyl-7-methyl-3H-imidazo[4,5-b]pyridine]
30%	415 nM	1.7 nM	CCCc1nc2c(C)cc(CCC(C)(O)CC)nc2n1[C@H]1CCc2cc(-c3ccccc3-c3nnn[nH]3)ccc21 (stereo partly drawn) [Example 50, 1-(3-((1S)-5-(2-(1H-tetrazol-5-yl)phenyl)-2,3-dihydro-1H-inden-1-yl)-7-methyl-2-propyl-3H-imidazo[4,5-b]pyridin-5-yl)-3-methylpentan-3-ol]
26%	170 nM	1.2 nM	CCc1nc2c(C)cc(CC[C@@H](O)CC)nc2n1[C@H]1CCc2cc(-c3ccccc3-c3nnn[nH]3)ccc21 [Example 46, (S)-1-(3-((1S)-5-(2-(1H-tetrazol-5-yl)phenyl)-2,3-dihydro-1H-inden-1-yl)-2-ethyl-7-methyl-3H-imidazo[4,5-b]pyridin-5-yl)pentan-3-ol]
18%	815 nM	1.6 nM	CCCc1nc2c(C)cc(CCC(C)O)nc2n1[C@H]1CCc2cc(-c3ccccc3-c3nnn[nH]3)ccc21 (stereo partly drawn) [Example 49, 4-(3-((1S)-5-(2-(1H-tetrazol-5-yl)phenyl)-2,3-dihydro-1H-inden-1-yl)-7-methyl-2-propyl-3H-imidazo[4,5-b]pyridin-5-yl)butan-2-ol]
38%	475 nM	1.1 nM	CCc1nc2c(C)cc(CCC(O)CC)nc2n1[C@H]1CCc2cc(-c3ccccc3-c3nnn[nH]3)ccc21 (stereo partly drawn) [Example 44, 1-(3-((1S)-5-(2-(1H-tetrazol-5-yl)phenyl)-2,3-dihydro-1H-inden-1-yl)-2-ethyl-7-methyl-3H-imidazo[4,5-b]pyridin-5-yl)pentan-3-ol]
30%	215 nM	2.9 nM	CCc1nc2c(C)cc(CCC3CC3)nc2n1[C@H]1CCc2cc(-c3ccccc3-c3nnn[nH]3)ccc21 [Example 59, 3-((1S)-5-(2-(1H-tetrazol-5-yl)phenyl)-2,3-dihydro-1H-inden-1-yl)-5-(2-cyclopropylethyl)-2-ethyl-7-methyl-3H-imidazo[4,5-b]pyridine]
34%	550 nM	1.3 nM	CCc1nc2c(C)cc(CCCO)nc2n1[C@H]1CCc2cc(-c3ccccc3-c3nnn[nH]3)ccc21 [Example 47, 3-(3-((1S)-5-(2-(1H-tetrazol-5-yl)phenyl)-2,3-dihydro-1H-inden-1-yl)-2-ethyl-7-methyl-3H-imidazo[4,5-b]pyridin-5-yl)propan-1-ol]
